Assays:
PC3 xenografted tumors = experiment: Tumour growth in PC3-xenografted mice, cyclin B1 siRNA; format: in vivo
Procedure: FIGS. 11A-11D: NANOPEP-6 Cyclin B1 siRNA delivery upon topical and systemic injection. Athymic female nude mice were subcutaneously inoculated into the flank with 1×10^6 PC3 (11A and 11B) or HT29 (11C and 11D). Two to three weeks after tumour implant, when tumour size reached about 100 mm^3, animals were treated by intratumoral (11A and 11C) injections, every 3 days, with a solution either saline buffer solution (closed triangle), free Cyc-B1 siRNA (open triangle), control siRNA Cyc-B3 (closed box) or Cyc-B1 siRNA at 5 μg (open circle) and 10 μg (closed circle) complexed with NANOPEP-6 at a 1/20 molar ratio. […] Tumour diameter was measured in two directions at regular intervals using a digital calliper and tumour volume was calculated as length×width×height×0.52. […]
Tumour diameter was measured in two directions at regular intervals using a digital calliper and tumour volume was calculated as length×width×height×0.52. […] The statistical significance of the results was calculated by Student's t test and p<0.05 considered to be statistically significant. […]
The potential of NANOPEP-6 (VEPEP6/VEPEP6) to deliver cyclin B1 siRNA in vivo was first evaluated on human prostate carcinoma cell PC3-xenografted mice (FIG. 11A). The effect of local intratumoral administration of NANOPEP-6/siRNA particles (molar ratio 20/1) on the growth of established subcutaneous tumours was evaluated. […]

cyclin B1 = experiment: Cyclin B1 silencing at protein (Western blotting) and mRNA (Quantigen) level; format: cell-based, Human; settings: 200 nM siRNA complexed with VEPEP-6 at a 1/20 ratio
Procedure: FIGS. 6A-6C: VEPEP-6 dose response of Cyclin B1 silencing at the protein and mRNA levels on Hela (6A) and HS68 (6B) cells. Stock solution of VEPEP-6/siRNA ([…]) particles were prepared at a molar ratio of 1/20 (siRNA/VEPEP-6), and lower concentrations (from 200 nM to 0.125 nM) were obtained by serial dilution of the stock solution in PBS. HeLa (Panel A) and HS-68 (Panel B) cells (60% confluency) were overlaid with preformed complexes for 30 min, then fresh DMEM supplemented with 10% FCS was added directly to the cells, which were then returned to the incubator for 24 hrs. Cyclin B1 protein levels were determined by Western Blotting using Cdk2 as a control for quantification (white bars). Cyclin B1 mRNA levels were measured 12 hrs after transfection using Quantigen technology (black bars). Mismatched Cyc-B3 siRNA associated with VEPEP-6 (200 nM) and empty VEPEP-6 particles (20 μM) were used as a control. 6C: Dose-response of G2-arrest associated with Cyclin B1 silencing. HeLa (black bars) and HS68 (white bars) cells were treated with increasing concentrations of VEPEP-6/siRNA-Cyc-B1 from 0.25 nM to 20 nM. The cell cycle status was evaluated by FACS analysis. […]
Cyclin B1 mRNA and protein levels were determined 12 and 24 hrs following transduction, using Quantigen (Panomics Inc.) and Western blotting, respectively. […]

Substance	inhibition of tumour growth (PC3 xenografted tumors; complexed with NANOPEP-6, 0.5 mg/kg)	effect on cyclin B1 levels and cell cycle progression (cyclin B1)	effect on tumour growth (PC3 xenografted tumors; controls: naked siRNA 100 (intratumoral or intravenous), carrier alone)
Cyc-B3: cyclin B1 siRNA harbouring two mismatches, control, SEQ ID No: 19/20 (chain 1 GGUGAAGAUCAGCAUGGCATT; chain 2 UGCCAUGUCGAUCUUCACCTT; chemistry not given here)	unable to inhibit tumour growth	no effect	–
naked siRNA: Cyc-B1 siRNA without carrier, SEQ ID No: 17/18 (chain 1 GGCGAAGAUCAACAUGGCATT; chain 2 UGCCAUGUUGAUCUUCGCCTT; chemistry not given here)	–	–	no significant effect
si-GAPDH: unrelated siRNA targeting GAPDH, SEQ ID No: 21/22 (chain 1 CAUCAUCCCUGCCUCUACUTT; chain 2 AGUAGAGGCAGGGAUGAUG; chemistry not given here)	–	no effect	–

Source: patent US10287581B2, “Cell penetrating peptides for intracellular delivery of molecules” (AADIGEN, LLC, priority 2011, dated 2019)
